Values after ≈ are worked out from the molar mass of the structure shown.

In data set [1] the test system is Mycobacterium tuberculosis. Nature of the data set: Antimycobacterial activity against Mycobacterium tuberculosis H37Rv ATCC 27294 after 4 days by microplate Alamar blue assay. The format is functional. To be noted: H37Rv ATCC 27294, 96 h. (Alamar Blue is a resazurin reagent that responds to reducing activity.)
In data set [2] the test system is Mycobacterium tuberculosis. Put plainly: Antimycobacterial activity against Mycobacterium tuberculosis isolate 19809 after 4 days by microplate Alamar blue assay. To be noted: isolate 19809, 96 h. Type of data set: functional.
Data set [3] has as its system Mycobacterium tuberculosis. Put plainly: Antimycobacterial activity against Mycobacterium tuberculosis isolate 19852 after 4 days by microplate Alamar blue assay. Type of data set: functional. To be noted: isolate 19852, 96 h.
In data set [4] the test system is Mycobacterium tuberculosis. Put plainly: Antimycobacterial activity against Mycobacterium tuberculosis isolate 19874 after 4 days by microplate Alamar blue assay. Type of data set: functional. The settings on record: isolate 19874, 96 h.
In data set [5] the test system is Mycobacterium tuberculosis. Put plainly: Antimycobacterial activity against Mycobacterium tuberculosis isolate 19769 after 4 days by microplate Alamar blue assay. The settings on record: isolate 19769, 96 h. The format is functional.
For data set [6], the system named is Mycobacterium tuberculosis. Put plainly: Antimycobacterial activity against Mycobacterium tuberculosis isolate 19675 after 4 days by microplate Alamar blue assay. Type of data set: functional. The settings on record: isolate 19675, 96 h.
Data set [7] deals with Mycobacterium tuberculosis. Nature of the data set: Antimycobacterial activity against Mycobacterium tuberculosis isolate 19863 after 4 days by microplate Alamar blue assay. The settings on record: isolate 19863, 96 h. The format is functional.
The subject of data set [8] is Mycobacterium tuberculosis. Put plainly: Antimycobacterial activity against Mycobacterium tuberculosis isolate 19805 after 4 days by microplate Alamar blue assay. Type of data set: functional. To be noted: isolate 19805, 96 h.
The test system of data set [9] is Mycobacterium tuberculosis. Nature of the data set: Antimycobacterial activity against Mycobacterium tuberculosis isolate 19806 after 4 days by microplate Alamar blue assay. The settings on record: isolate 19806, 96 h. Type of data set: functional.
In data set [10] the test system is Mycobacterium tuberculosis. Nature of the data set: Antimycobacterial activity against Mycobacterium tuberculosis isolate 19810 after 4 days by microplate Alamar blue assay. The format is functional. The settings on record: isolate 19810, 96 h.
Data set [11] concerns Mycobacterium tuberculosis. Nature of the data set: Antimycobacterial activity against Mycobacterium tuberculosis isolate 11168 after 4 days by microplate Alamar blue assay. Type of data set: functional. To be noted: isolate 11168, 96 h.
For data set [12], the system named is Mycobacterium tuberculosis. Nature of the data set: Antimycobacterial activity against Mycobacterium tuberculosis H37Rv ATCC 27294. The format is functional.
Data set [13] can be described thus: Toxicity in po dosed BALB/c mouse. Type of data set: organism-based. To be noted: in vivo.

In general, MIC refers to the least concentration at which growth counts as inhibited. A higher MIC goes with a need for much substance. For `CN(C)C(=O)/C=C/C(=O)c1ccc(-c2ccccc2)cc1`, the MIC in data set [1] worked out at 0.125 µg/mL (≈ 0.447 µM); in data set [2] it was 0.48 µg/mL (≈ 1.72 µM); in [3] it was 0.19 µg/mL (≈ 0.68 µM); in data set [4] it was 0.23 µg/mL (≈ 0.823 µM); in data set [5], 0.43 µg/mL (≈ 1.54 µM); in [6], 0.45 µg/mL (≈ 1.61 µM). Further, the minimum inhibitory concentration (MIC) turned out to be 0.23 µg/mL (≈ 0.823 µM) in data set [7]; 0.25 µg/mL (≈ 0.895 µM) in data set [8]; 0.23 µg/mL (≈ 0.823 µM) in [9]; 0.12 µg/mL (≈ 0.43 µM) in [10]; 0.05 µg/mL (≈ 0.179 µM) in [11].
In general, LD50 refers to the dose at which mortality reaches 50%. For the compound `COC(=O)/C=C/C(=O)c1ccc(OC)cc1`, the minimal inhibitory concentration (MIC) in data set [12] and in data set [1] was 0.25 µg/mL (≈ 1.14 µM) in each case. In addition, in data set [13], the median lethal dose (LD50) came to 568 mg/kg.
`CCOC(=O)/C=C/C(=O)c1ccc(OCC)cc1` returned an MIC in [1] of 0.54 µg/mL (≈ 2.17 µM).

The record behind these values is ChEMBL document CHEMBL4330134, “Design, synthesis, and bioevaluation of a novel class of (E)-4-oxo-crotonamide derivatives as potent antituberculosis agents” (Bioorg Med Chem Lett, 2019).
